In PMC11571207, “Stereorandomized Oncocins with Preserved Ribosome Binding and Antibacterial Activity” (Journal of Medicinal Chemistry, 2024):
Read-outs that look alike come from different tables or passages of the source. No end group written: not given here.

How the values were obtained:
K. pneumoniae NCTC418 = assay: Time-killing kinetic assay, K. pneumoniae; format: cell-based, Klebsiella pneumoniae; settings: 8× MIC, full MHB pH 7.4, 0-6 h, n = 6
Procedure: (§1) Time-Killing Kinetic Assay
(§2) Single colonies of E. coli W3110 and K. pneumoniae NCTC418 were picked and grown overnight with shaking (180 rpm) in LB (Sigma-Aldrich, Buchs, Switzerland) medium 5 mL overnight at 37 °C. The overnight bacterial cultures were diluted to OD600 = 0.002 (2 × 10^6 CFU/mL) in fresh MHB medium. Stock solutions of AMPs in sterilized milliQ water were prepared in 1 mg/mL and were diluted to two times more than required concentration in fresh MHB (Sigma- Aldrich, Buchs, Switzerland) medium at pH 7.4. 100 μL of prepared bacteria solution in MHB and 100 μL of samples in MHB were mixed in a 96-well microtiter plate (TPP, untreated, Corning Incorporated, Kennebunk, USA). Untreated bacteria at 1 × 10^6 CFU/mL were used as a growth control. 96-well microtiter plates were incubated in 37 °C with shaking (180 rpm). Surviving bacteria were quantified at 0, 0.5, 1, 2, 4 and 6 h by plating 10 -fold dilutions of the sample in sterilized normal saline on LB agar plates. LB agar plates were incubated at 37 °C for 10 h, and the number of individual colonies was counted at each time point. The assay was performed in triplicate in a biosafety level 2 lab. […]

[1] = tested on: P. aeruginosa PA14 4.13 (phoQ); settings: for MIC P. aeruginosa PA14 4.13: supplement CSV
[2] = tested on: E. coli ribosome, U2506 of the 23S rRNA; assay: Ribosome footprinting (CMCT modification of U2506); format: binding; settings: 1 μM peptide, 10.5 μM CMCT, purified E. coli ribosomes (5 pmol), 25 °C; primer extension, sequencing gel
Procedure: A 5 mL culture of E. coli MG1655 (WT-cells) was grown in LB overnight (220 rpm, 37 °C). One liter LB medium was inoculated, and bacteria were grown to OD = 0.6 (220 rpm. 37 °C); cells were centrifuged in centrifuge bottles, and the pellet was resuspended in ice-cold water and transferred in 50 mL falcon tubes. Falcon tubes were centrifuged, the supernatant was removed, the pellet was resuspended in 15 mL polysome buffer (TRIS/HCl pH 7.5 20 mM, NH4Cl 100 mM, MgCl2 10 mM, EDTA 0.5 mM, β-mercaptoethanol 60 mM), frozen dropwise in N2 (l), and stored at −80 °C. The cells were ground in CryoMil with the standard program (1 min precooling, 2 min grinding 5/s, 2 min cooling, 2 min grinding 5/s). The powder was transferred in 50 mL falcon tubes containing N2 (l) and stored at −80 °C. The lysates were thawed with a water bath (30 °C), put on ice, transferred to precooled Eppendorf tubes, and centrifuged (5000 g, 2 min, 4 °C). The clear lysate was transferred to new precooled tubes, centrifuged (14 000 g, 10 min, 4 °C), and the supernatant was transferred to new precooled tubes. 300 mL of clear lysate was loaded on a 10–50% sucrose gradient in CMCT buffer (K-borate buffer pH 8 80 mM, MgCl2 25 mM, NH4Cl 100 mM) and ultracentrifuged (3 h, 234 050 g, 4 °C). The fractions containing monosomes and polysomes were collected and ultracentrifuged overnight (16 h, 260 800 g, 4 °C). The supernatant was discarded, and the pellet was washed with ice-cold CMCT buffer. The ribosomes were resuspended in 100 μL CMCT buffer with a mini magnetic stirring bar and stored on ice. The concentration of ribosomes was measured in 1/200 dilution in water.
Ribosomes (5 pmol) were mixed with 8 μL of CMCT buffer, the compound of interest 1 μM, and water to a final volume of 20 μL in a precooled tube and incubated at 25 °C for 10 min. 20 μL of CMCT (10.5 μM) in water was added and incubated at 25 °C for 30 min. The reaction was stopped with 160 μL of EDTA (30 μM), and the samples were stored on ice.
160 μL portion of RNA resuspension buffer and 40 μL of 10% SDS were added, and the samples were vigorously resuspended. 400 μL of prewarmed acid phenol was added, and the samples were incubated on a thermomixer (5 min, 1200 rpm, 65 °C). The samples were put on ice for 5 min and centrifuged (5 min, 14 000 g, RT). The watery phase was transferred to a new precooled tube, 400 μL of phenol–chloroform–isoamyl alcohol (4 °C) was added, and the samples were mixed (5 min, 1200 rpm, RT). The samples were centrifuged again (5 min, 14 000g, RT), and the watery phase was transferred to another precooled tube. 34 μL of 3 M NaOAc pH 5.5, 0.8 μL of Glycoblue and 400 μL of isopropanol were added, and the samples were incubated for 3 h at −80 °C. The samples were then centrifuged (40 min, 21 000g, 4 °C), and the pellet was washed with ice-cold 70% EtOH. The residual liquid was removed, and the samples were dried (5 min, 37 °C). The samples were resuspended in 20 μL of water, the concentration was measured, and the samples were −80 °C.
Primers designed to probe the positions 2506 of the 23S rRNA (5-[sequence]-3′) were labeled with radioactive phosphate (γ^32 P-ATP). […] To prepare primers for one reaction, 1 μL of primer (0.3 μM), 0.4 μL of 5× PNK-buffer, 0.25 μL of water, 0.2 μL of γ^32 P-ATP, and 0.15 μL of T4 PNK were mixed and incubated at 37 °C.

P. aeruginosa ZEM9A = assay: microbe, parasite or virus in culture; settings: for MIC P. aeruginosa ZEM9A: supplement CSV
Outline: (§3)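 Minimal inhibitory concentrations come from broth microdilution in MH medium, with a top peptide concentration of 64 μg/mL halved serially.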

P. aeruginosa ZEM-1A = assay: microbe, parasite or virus in culture
Outline: as §3

P. aeruginosa PA14 = assay: microbe, parasite or virus in culture; settings: for MIC P. aeruginosa PA14: supplement CSV
Outline: as §3

[3] = tested on: P. aeruginosa PA14 2P4 (pmrB); assay: microbe, parasite or virus in culture; settings: for MIC P. aeruginosa PA14 2P4: supplement CSV
Outline: as §3

E. cloacae = assay: microbe, parasite or virus in culture; settings: for MIC E. cloacae: supplement CSV
Outline: as §3

K. pneumoniae OXA-48 = assay: microbe, parasite or virus in culture; settings: for MIC K. pneumoniae OXA-48: supplement CSV
Outline: as §3

E. coli W3110 = assay: Time-killing kinetic assay, E. coli; format: cell-based, Escherichia coli; settings: 8× MIC, full MHB pH 7.4, 0-6 h, n = 6
Procedure: as §1, §2

[4] = polymyxin B resistant strain, 12.5% MHB pH 7.4, 16–20 h at 37 °C
[5] = polymyxin B resistant strain, full MHB pH 7.4, 16–20 h at 37 °C

## VDKPPYLPRPRPPRRIYNR [sr9Cterm-Onc] (VDKPPYLPRPRPPRRIYNR-NH2; also: residues 11-19 stereorandomized (1:1 L/D mixture)) [oncocin containing nine stereorandomized C-terminal residues]
K. pneumoniae NCTC418
  Killing profile against K. pneumoniae: comparable kinetics to L-Onc
[1]; [4]
  MIC P. aeruginosa PA14 4.13 (phoQ), 12.5% MHB: 8 µg/mL
[1]; [5]
  MIC P. aeruginosa PA14 4.13 (phoQ), full MHB: 64 µg/mL
[1]; 12.5% MH pH 7.4
  MIC P. aeruginosa PA14 4.13: 8 µg/mL
[1]; full MH pH 7.4
  MIC P. aeruginosa PA14 4.13: 64 µg/mL
[2]
  Protection of U2506 of 23S rRNA from CMCT modification (band at C2507): protected from CMCT modification
P. aeruginosa ZEM9A; clinical isolate, 12.5% MHB pH 7.4, 16–20 h at 37 °C
  MIC P. aeruginosa ZEM9A, 12.5% MHB: 8 µg/mL
P. aeruginosa ZEM9A; clinical isolate, full MHB pH 7.4, 16–20 h at 37 °C
  MIC P. aeruginosa ZEM9A, full MHB: > 64 µg/mL
P. aeruginosa ZEM9A; 12.5% MH pH 7.4
  MIC P. aeruginosa ZEM9A: 8 µg/mL
P. aeruginosa ZEM9A; full MH pH 7.4
  MIC P. aeruginosa ZEM9A: >64 µg/mL
P. aeruginosa ZEM-1A; clinical isolate, 12.5% MHB pH 7.4, 16–20 h at 37 °C, cells marked c: single measurement (in duplicates)
  MIC P. aeruginosa ZEM-1A, 12.5% MHB: 4 to 8 µg/mL
P. aeruginosa ZEM-1A; clinical isolate, full MHB pH 7.4, 16–20 h at 37 °C, cells marked c: single measurement (in duplicates)
  MIC P. aeruginosa ZEM-1A, full MHB: 64 µg/mL
P. aeruginosa ZEM-1A; supplement CSV, 12.5% MH pH 7.4
  MIC P. aeruginosa ZEM-1A: 4 to 8 µg/mL
P. aeruginosa PA14; 12.5% MHB pH 7.4, 16–20 h at 37 °C, two different duplicate MIC determinations
  MIC P. aeruginosa PA14, 12.5% MHB: 8 µg/mL
P. aeruginosa PA14; full MHB pH 7.4, 16–20 h at 37 °C, two different duplicate MIC determinations
  MIC P. aeruginosa PA14, full MHB: > 64 µg/mL
P. aeruginosa PA14; 12.5% MH pH 7.4
  MIC P. aeruginosa PA14: 8 µg/mL
P. aeruginosa PA14; full MH pH 7.4
  MIC P. aeruginosa PA14: >64 µg/mL
[3]; [4]
  MIC P. aeruginosa PA14 2P4 (pmrB), 12.5% MHB: 4 µg/mL
[3]; [5]
  MIC P. aeruginosa PA14 2P4 (pmrB), full MHB: > 64 µg/mL
[3]; 12.5% MH pH 7.4
  MIC P. aeruginosa PA14 2P4: 4 µg/mL
[3]; full MH pH 7.4
  MIC P. aeruginosa PA14 2P4: >64 µg/mL
E. cloacae; 12.5% MHB pH 7.4, 16–20 h at 37 °C
  MIC E. cloacae, 12.5% MHB: 1 µg/mL
E. cloacae; full MHB pH 7.4, 16–20 h at 37 °C
  MIC E. cloacae, full MHB: 32 µg/mL
E. cloacae; 12.5% MH pH 7.4
  MIC E. cloacae: 1 µg/mL
E. cloacae; full MH pH 7.4
  MIC E. cloacae: 32 µg/mL
K. pneumoniae OXA-48; carbapenem-resistant, 12.5% MHB pH 7.4, 16–20 h at 37 °C
  MIC K. pneumoniae OXA-48, 12.5% MHB: 4 µg/mL
K. pneumoniae OXA-48; carbapenem-resistant, full MHB pH 7.4, 16–20 h at 37 °C
  MIC K. pneumoniae OXA-48, full MHB: 32 µg/mL
K. pneumoniae OXA-48; 12.5% MH pH 7.4
  MIC K. pneumoniae OXA-48: 4 µg/mL
K. pneumoniae OXA-48; full MH pH 7.4
  MIC K. pneumoniae OXA-48: 32 µg/mL
E. coli W3110
  Killing profile against E. coli: comparable kinetics to L-Onc
